Source: article PMC2690590, “Functional recombinant MHC class II molecules and high-throughput peptide-binding assays” (Immunome Research, 2009)
Read-outs that look alike come from different tables or passages of the source. Where no end group is shown, it is not given here.

Key:
[1] = molecular target: T1, DR2a (DRA*0101/DRB5*0101) (Homo sapiens, UniProt P01903+Q30154); test: Direct LOCI peptide-MHC-II binding assay, DR2a
T1 construct: DRA*01011-181LZFos; DRB5*01011-190LZJunBSP; made in house

I-E^d = molecular target: T2, I-E^d (Mus musculus, UniProt P01904+P01915); test: Direct LOCI peptide-MHC-II binding assay, I-E^d
T2 construct: I-E^dA1-191LZFos; I-E^dB1-198LZJunBSP; made in house

[2] = molecular target: T1, DR2a (DRA*0101/DRB5*0101); test: Competitive LOCI peptide-MHC-II binding assay, DR2a
DR3 (DRA*0101/DRB1*0301) = molecular target: T3, DR3 (DRA*0101/DRB1*0301) (Homo sapiens, UniProt P01903+P01911, A100K/A102G/A103R/A169T/F55Y/I96L/K41T/L162R/M171V/P40S/Q125H/Q178H/Q39Y/R42S/S66N/T106N/T262R/W38E/Y61H); test: Direct LOCI peptide-MHC-II binding assay, DR3
T3 construct: DRA*01011-181LZFos; DRB1*03011-190LZJunBSP; made in house

[3] = molecular target: DP401 (DPA1*0103/DPB1*0401) (Homo sapiens, UniProt P04440+P20036); test: Direct LOCI peptide-MHC-II binding assay, DP401
DR4 (DRA*0101/DRB1*0401) = molecular target: T4, DR4 (DRA*0101/DRB1*0401) (Homo sapiens, UniProt P01903+P01911, A100K/A169T/F76Y/I96L/K127E/L162R/M171V/N62H/P40V/Q125Y/R42H/S133A/S149N/S66Y/V115G/V209L/W38E); test: Direct LOCI peptide-MHC-II binding assay, DR4
T4 construct: DRA*01011-181LZFos; DRB1*04011-190LZJunBSP; made in house

[4] = molecular target: T5, DRB3*0301 (DRA*0101/DRB3*0301) (Homo sapiens, UniProt P01903+P79483, A169T/A212P/D57E/G115V/L67V/Q178H/R103Q/R40L/Y55F); test: Direct LOCI peptide-MHC-II binding assay, DRB3*0301
T5 construct: DRA*01011-181LZFos; DRB3*03011-190LZJunBSP; made in house

[5] = molecular target: T6, DRB1*0813 (DRA*0101/DRB1*0813) (Homo sapiens, UniProt P01903+P01911, A100R/A103L/A169T/F76Y/H45Y/I96L/K41T/L162R/M171V/P40S/Q125H/Q178H/Q39Y/Q99D/R218S/R42G/S66Y/V115G/W38E); test: Direct LOCI peptide-MHC-II binding assay, DRB1*0813
T6 construct: DRA*01011-181LZFos; DRB1*08131-190LZJunBSP; made in house

[6] = pH 6-7, 48 h 18°C, read-out: DR3 affinity
[7] = pH 7, 48 h 18°C, read-out: DRB3*0301 affinity
[8] = pH 6, 48 h 18°C, read-out: DR2a pH6 affinity
[9] = 48 h 18°C, read-out: I-E^D affinity
[10] = pH 6-7.5, 48 h 18°C, read-out: DR2a Komp IC50
[11] = pH 7, 48 h 18°C, read-out: DP401 affinity
[12] = pH 6-7.5, 48 h 18°C, read-out: DRB1*0813 affinity

Compound	Kd [1]	Kd (I-E^d; I-E^D affinity (nM))	IC50 ([2]; DR2a Komp IC50 (nM))	Kd (DR3 (DRA*0101/DRB1*0301))	Kd ([3]; DP401 affinity (nM))	Kd (DR4 (DRA*0101/DRB1*0401); DR4 affinity (nM))	Kd [4]	Kd [5]	Kd (I-E^d)	IC50 [2]	other results
CC[C@H](C)[C@H](NC(=O)[C@@H](N)CCCCN)C(=O)N[C@@H](CC(C)C)C(=O)N[C@@H](CCC(=O)O)C(=O)N1CCC[C@H]1C(=O)N[C@@H](Cc1ccccc1)C(=O)N[C@@H](CCCNC(=N)N)C(=O)N[C@@H](CCCCN)C(=O)N[C@@H](Cc1ccc(O)cc1)C(=O)N[C@H](C(=O)N[C@@H](C)C(=O)N[C@@H](Cc1ccccc1)C(=O)N[C@H](C(=O)N[C@H](C(=O)N1CCC[C@H]1C(=O)O)[C@@H](C)CC)[C@@H](C)O)[C@@H](C)O	16 nM	2200 nM	1 nM	18 nM	30 nM	1600 nM	1020 nM	11 nM	–	–	–
CC(C)C[C@H](NC(=O)CNC(=O)[C@H](Cc1c[nH]c2ccccc12)NC(=O)CNC(=O)[C@@H](NC(=O)[C@@H]1CCCN1C(=O)[C@@H](NC(=O)[C@H](C)NC(=O)[C@H](CC(=O)O)NC(=O)[C@H](C)NC(=O)[C@H](Cc1ccccc1)NC(=O)[C@@H](NC(=O)[C@H](CCC(N)=O)NC(=O)[C@H](CS)NC(=O)[C@H](CC(C)C)NC(=O)[C@@H](N)Cc1ccc(O)cc1)C(C)C)[C@@H](C)O)[C@@H](C)O)C(=O)O	3700 nM	–	–	69 nM	–	–	2060 nM	2990 nM	> 5000 nM	> 5000 nM	Kd [3]: 13 nM; Kd (DR4 (DRA*0101/DRB1*0401)): 18 nM
CC[C@H](C)[C@H](NC(=O)[C@H](Cc1ccccc1)NC(=O)[C@@H]1CCCN1C(=O)[C@@H](N)Cc1ccc(O)cc1)C(=O)N[C@@H](CCC(=O)O)C(=O)N[C@@H](CCC(N)=O)C(=O)N[C@@H](CCC(=O)O)C(=O)NCC(=O)N1CCC[C@H]1C(=O)N[C@@H](CCC(=O)O)C(=O)N[C@@H](Cc1ccccc1)C(=O)N[C@@H](Cc1ccccc1)C(=O)N[C@@H](CC(=O)O)C(=O)N[C@@H](CCC(N)=O)C(=O)N[C@@H](CCC(=O)O)C(=O)O	> 5000 nM	> 5000 nM	> 5000 nM	–	> 5000 nM	–	–	> 5000 nM	–	–	Kd (DR3 (DRA*0101/DRB1*0301); [6]): 289 nM; Kd [4, 7]: 3230 nM
CC[C@H](C)[C@H](NC(=O)[C@H](Cc1c[nH]cn1)NC(=O)[C@H](Cc1c[nH]cn1)NC(=O)[C@H](Cc1c[nH]cn1)NC(=O)[C@H](Cc1c[nH]cn1)NC(=O)[C@H](Cc1c[nH]cn1)NC(=O)[C@H](Cc1c[nH]cn1)NC(=O)[C@@H](N)Cc1ccc(O)cc1)C(=O)N[C@@H](CCC(=O)O)C(=O)NCC(=O)N[C@@H](CCCNC(=N)N)C(=O)N[C@@H](CO)C(=O)N[C@@H](Cc1ccccc1)C(=O)N[C@@H](CCC(=O)O)C(=O)N[C@@H](CCCNC(=N)N)C(=O)N[C@@H](Cc1ccccc1)C(=O)N[C@@H](CCC(=O)O)C(=O)N[C@H](C(=O)N[C@@H](Cc1ccccc1)C(=O)N1CCC[C@H]1C(=O)N[C@@H](CCCCN)C(=O)N[C@@H](CCC(=O)O)C(=O)O)[C@@H](C)CC [6xH Influenza A (PR8) HA 109–119]	9 nM	–	–	1430 nM	–	–	1530 nM	181 nM	984 nM	23 nM	Kd [3]: 1 nM; Kd (DR4 (DRA*0101/DRB1*0401)): 1870 nM
CSCC[C@H](NC(=O)[C@H](CCCNC(=N)N)NC(=O)[C@H](CCSC)NC(=O)[C@H](CCCCN)NC(=O)[C@H](CO)NC(=O)[C@@H](NC(=O)[C@@H]1CCCN1C(=O)[C@H](CCCCN)NC(=O)[C@@H]1CCCN1C(=O)[C@@H]1CCCN1C(=O)[C@H](CCCCN)NC(=O)[C@@H]1CCCN1C(=O)[C@@H](N)CC(C)C)C(C)C)C(=O)N[C@@H](C)C(=O)N[C@H](C(=O)N1CCC[C@H]1C(=O)N[C@@H](CC(C)C)C(=O)N[C@@H](CC(C)C)C(=O)N[C@@H](CCSC)C(=O)N[C@@H](CCC(N)=O)C(=O)N[C@@H](C)C(=O)N[C@@H](CC(C)C)C(=O)N1CCC[C@H]1C(=O)N[C@@H](CCSC)C(=O)N[C@@H](Cc1ccc(O)cc1)C(=O)N[C@@H](Cc1c[nH]cn1)C(=O)N[C@@H](Cc1c[nH]cn1)C(=O)N[C@@H](Cc1c[nH]cn1)C(=O)N[C@@H](Cc1c[nH]cn1)C(=O)N[C@@H](Cc1c[nH]cn1)C(=O)N[C@@H](Cc1c[nH]cn1)C(=O)O)[C@@H](C)O [CLIP 6xH]	–	–	–	–	–	–	–	–	–	–	Kd ([1]; read-out: DR2a pH6 affinity): 1 nM; IC50 ([2]; competitive LOCI, 4 nM biotin-PEG-HA306–318 agonist, β chain without biotin, α/β 13/5 nM, pH 6-7.5, L243, 48 h 18°C, average of 2–4 measurements, read-out: DR2a Komp IC50): 1 nM; Kd (DR3 (DRA*0101/DRB1*0301); read-out: DR3 affinity): 1 nM; Kd ([3]; read-out: DP401 affinity): 1 nM; Kd (DR4 (DRA*0101/DRB1*0401); read-out: DR4 affinity): 1 nM; Kd ([4]; read-out: DRB3*0301 affinity): 1 nM; Kd ([5]; read-out: DRB1*0813 affinity): 2 nM
CC[C@H](C)[C@H](NC(=O)CNC(=O)[C@@H](NC(=O)[C@H](Cc1ccccc1)NC(=O)[C@H](CCCCN)NC(=O)[C@H](CO)NC(=O)[C@H](CC(N)=O)NC(=O)[C@H](C)NC(=O)[C@H](CCCCN)NC(=O)[C@@H](NC(=O)[C@H](Cc1ccc(O)cc1)NC(=O)[C@@H](N)CCC(N)=O)[C@@H](C)CC)[C@@H](C)CC)C(=O)N[C@H](C(=O)N[C@@H](CCC(=O)O)C(=O)O)[C@@H](C)O [Clostridium tetanus]	–	–	–	–	–	–	1 nM	–	1500 nM	–	Kd [3]: 56 nM
CC[C@H](C)[C@H](N)C(=O)N[C@H](C(=O)N[C@@H](Cc1ccccc1)C(=O)N[C@@H](CCSC)C(=O)N[C@@H](Cc1c[nH]c2ccccc12)C(=O)N[C@@H](C)C(=O)N[C@H](C(=O)N[C@@H](Cc1c[nH]cn1)C(=O)N[C@@H](Cc1c[nH]cn1)C(=O)O)[C@@H](C)CC)C(C)C [Flu HA1194-202]	167 nM	–	–	> 5000 nM	–	–	> 5000 nM	276 nM	> 5000 nM	529 nM	Kd [3]: > 5000 nM; Kd (DR4 (DRA*0101/DRB1*0401)): > 5000 nM
CSCC[C@H](NC(=O)[C@@H](N)Cc1ccccc1)C(=O)N[C@@H](CO)C(=O)N[C@@H](CCCNC(=N)N)C(=O)N[C@@H](CCCCN)C(=O)N[C@@H](CC(C)C)C(=O)N[C@@H](Cc1c[nH]cn1)C(=O)N[C@@H](CCCNC(=N)N)C(=O)N[C@@H](Cc1ccc(O)cc1)C(=O)O [Hantaan]	> 5000 nM	–	–	–	–	–	–	–	3 nM	2550 nM	–
CC[C@H](C)[C@H](NC(=O)[C@@H](N)Cc1ccc(O)cc1)C(=O)N[C@@H](CC(=O)O)C(=O)N[C@H](C(=O)N[C@@H](Cc1c[nH]c2ccccc12)C(=O)N[C@@H](CC(C)C)C(=O)NCC(=O)NCC(=O)N[C@@H](CC(C)C)C(=O)N[C@@H](C)C(=O)N[C@@H](CCC(=O)O)C(=O)N[C@@H](CC(N)=O)C(=O)N[C@@H](Cc1ccccc1)C(=O)N[C@@H](CC(C)C)C(=O)N1CCC[C@H]1C(=O)N[C@@H](Cc1ccc(O)cc1)C(=O)O)C(C)C [Thyroid peroxidase]	2140 nM	> 5000 nM	691 nM	> 5000 nM	602 nM	> 5000 nM	3180 nM	> 5000 nM	–	–	–
FLIDLAFLI [Pox.o42.con A2]	–	–	–	–	–	–	–	–	–	–	Kd [1, 8]: > 5000 nM; Kd (I-E^d; [9]): > 5000 nM; IC50 [2, 10]: 4280 nM; Kd (DR3 (DRA*0101/DRB1*0301); [6]): > 5000 nM; Kd [3, 11]: 179 nM; Kd (DR4 (DRA*0101/DRB1*0401); pH 6-7.5, 48 h 18°C, read-out: DR4 affinity): > 5000 nM; Kd [4, 7]: > 5000 nM; Kd [5, 12]: > 5000 nM
FLYGALLLA [MBP]	> 5000 nM	> 5000 nM	> 5000 nM	> 5000 nM	34 nM	> 5000 nM	–	> 5000 nM	–	–	–
GVTYEIDLTNKN [Mycobact leprea]	> 5000 nM	> 5000 nM	> 5000 nM	4350 nM	> 5000 nM	2550 nM	> 5000 nM	> 5000 nM	–	–	–
HHHHHHIEGRFAALWFRNHFVFGGGTK [6xH Lambda 2(315)]	5 nM	26 nM	20 nM	882 nM	2 nM	11 nM	1200 nM	8 nM	–	–	–
WMARRHAER [Brucella]	> 5000 nM	–	–	–	–	–	–	–	6 nM	> 5000 nM	–
YILFLVKMNALRRLPV	–	–	–	–	–	–	–	–	–	–	Kd [1, 8]: 5 nM; Kd (I-E^d; [9]): 582 nM; IC50 [2, 10]: 20 nM; Kd (DR3 (DRA*0101/DRB1*0301); [6]): 39 nM; Kd [3, 11]: 45 nM; Kd [4, 7]: 3 nM; Kd [5, 12]: 78 nM
YLFFYRKSV [TERT572Y]	2650 nM	322 nM	> 5000 nM	> 5000 nM	> 5000 nM	1590 nM	–	95 nM	–	–	–
